From ChEMBL document CHEMBL1201862, “PubChem BioAssay data set” (2004)
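Growth conditions: 96-well plates. Treatment: test compound, 48 hours, 5 concentrations. Analysis: linear interpolation between bracketing concentrations; unreached endpoints set to highest concentration. Abbreviation: GI50, concentration required for 50% inhibition of growth.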 Calls of active or inactive are those of the source. Rule as the data show it: active = GI50 up to about 1.1 µM and inactive = higher.

Columns and labels:
Test in all cases: NCI-60 cell line screen, 48 h
786-0 = tested on: 786-0
A549 = tested on: A549
ACHN = tested on: ACHN
EKVX = tested on: EKVX
HCT-15 = tested on: HCT-15
IGROV-1 = tested on: IGROV-1
LOX IMVI = tested on: LOX IMVI
MCF7 = tested on: MCF7
NCI-H23 = tested on: NCI-H23
OVCAR-5 = tested on: OVCAR-5
OVCAR-8 = tested on: OVCAR-8
SF-295 = tested on: SF-295
SK-MEL-5 = tested on: SK-MEL-5
SN12C = tested on: SN12C
SW-620 = tested on: SW-620
U-251 = tested on: U-251
UO-31 = tested on: UO-31
COLO 205 = tested on: COLO 205
HCC 2998 = tested on: HCC 2998
CAKI-1 = tested on: CAKI-1

O=C(O)C1(C(O)c2ccccc2)SCCCS1 (stereo unspecified)
GI50 (786-0): > 10 µM (inactive)
GI50 (A549): > 10 µM (inactive)
GI50 (ACHN): > 10 µM (inactive)
GI50 (EKVX): > 10 µM (inactive)
GI50 (HCT-15): > 10 µM
GI50 (IGROV-1): > 10 µM (inactive)
GI50 (LOX IMVI): > 10 µM (inactive)
GI50 (MCF7): > 10 µM (inactive)
GI50 (NCI-H23): > 10 µM (inactive)
GI50 (OVCAR-5): > 10 µM (inactive)
GI50 (OVCAR-8): > 10 µM (inactive)
GI50 (SF-295): > 10 µM (inactive)
GI50 (SK-MEL-5): > 10 µM (inactive)
GI50 (SN12C): > 10 µM (inactive)
GI50 (SW-620): > 10 µM (inactive)
GI50 (U-251): > 10 µM (inactive)
GI50 (UO-31): > 10 µM (inactive)

Cc1nc2c(sc(=S)n2-c2ccccc2)c(=O)[nH]1
GI50 (A549): > 100 µM (inactive)
GI50 (ACHN): > 100 µM (inactive)
GI50 (COLO 205): > 100 µM (inactive)
GI50 (HCC 2998): > 100 µM (inactive)
GI50 (IGROV-1): > 100 µM (inactive)
GI50 (NCI-H23): > 100 µM (inactive)
GI50 (OVCAR-5): > 100 µM (inactive)
GI50 (OVCAR-8): > 100 µM (inactive)
GI50 (SF-295): > 100 µM (inactive)
GI50 (SK-MEL-5): > 100 µM (inactive)
GI50 (SW-620): > 100 µM (inactive)
GI50 (U-251): > 100 µM (inactive)
GI50 (UO-31): > 100 µM (inactive)

C=C1c2c(cc3c(c2O)c(=O)c2ccccc2n3C)OC1(C)C
GI50 (ACHN): 46.9 µM (inactive)
GI50 (CAKI-1): > 100 µM (inactive)
GI50 (COLO 205): > 100 µM (inactive)
GI50 (EKVX): > 100 µM (inactive)
GI50 (HCT-15): > 100 µM
GI50 (IGROV-1): 32.7 µM (inactive)
GI50 (LOX IMVI): > 100 µM (inactive)
GI50 (NCI-H23): 7.89 µM (inactive)
GI50 (OVCAR-8): 52.6 µM (inactive)
GI50 (SF-295): 22.5 µM (inactive)
GI50 (SK-MEL-5): > 100 µM (inactive)
GI50 (SN12C): > 100 µM (inactive)
GI50 (SW-620): > 100 µM (inactive)
GI50 (U-251): 50.1 µM (inactive)
GI50 (UO-31): > 100 µM (inactive)

COC(=O)[C@@H]1O[C@]12[C@@H](CO[Si](C)(C)C(C)(C)C)O[C@@H](n1cc(C)c(=O)[nH]c1=O)[C@@H]2O[Si](C)(C)C(C)(C)C
GI50 (A549): 25.5 µM (inactive)
GI50 (ACHN): 16.6 µM (inactive)
GI50 (CAKI-1): 23.4 µM (inactive)
GI50 (COLO 205): 28.4 µM (inactive)
GI50 (EKVX): 23.5 µM (inactive)
GI50 (HCT-15): 4.35 µM
GI50 (IGROV-1): 5.64 µM (inactive)
GI50 (LOX IMVI): 3.38 µM (inactive)
GI50 (NCI-H23): 15.8 µM (inactive)
GI50 (OVCAR-5): 20.4 µM (inactive)
GI50 (OVCAR-8): 15.3 µM (inactive)
GI50 (SF-295): 21.2 µM (inactive)
GI50 (SK-MEL-5): 19.7 µM (inactive)
GI50 (SN12C): 13.8 µM (inactive)
GI50 (SW-620): 11.5 µM (inactive)
GI50 (U-251): 12.3 µM (inactive)

c1c2c(cc(-n3nnc4c3CCCCCC4)c1-n1nnc3c1CCCCCC3)CCCCCC2
GI50 (ACHN): 5.71 µM (inactive)
GI50 (CAKI-1): 2.12 µM (inactive)
GI50 (EKVX): 10.7 µM (inactive)
GI50 (HCC 2998): 12.8 µM (inactive)
GI50 (HCT-15): 5.19 µM
GI50 (IGROV-1): 18.3 µM (inactive)
GI50 (LOX IMVI): 11.8 µM (inactive)
GI50 (NCI-H23): > 10 µM (inactive)
GI50 (OVCAR-5): 15.8 µM (inactive)
GI50 (OVCAR-8): 12.7 µM (inactive)
GI50 (SF-295): 12 µM (inactive)
GI50 (SK-MEL-5): 11.7 µM (inactive)
GI50 (SN12C): 10.8 µM (inactive)
GI50 (SW-620): 11.2 µM (inactive)
GI50 (U-251): 10.1 µM (inactive)
GI50 (UO-31): 5.4 µM (inactive)

Cc1cc(NC(=S)SCc2ccc(F)cc2)c([N+](=O)[O-])cc1C
GI50 (786-0): 33.3 µM (inactive)
GI50 (A549): 27.7 µM (inactive)
GI50 (ACHN): 32.4 µM (inactive)
GI50 (CAKI-1): 47.2 µM (inactive)
GI50 (COLO 205): 19.3 µM (inactive)
GI50 (EKVX): 39.6 µM (inactive)
GI50 (HCT-15): 18.3 µM
GI50 (MCF7): 42.1 µM (inactive)
GI50 (NCI-H23): 29.8 µM (inactive)
GI50 (OVCAR-5): 21.6 µM (inactive)
GI50 (OVCAR-8): 19 µM (inactive)
GI50 (SF-295): 34.5 µM (inactive)
GI50 (SK-MEL-5): 8.71 µM (inactive)
GI50 (SN12C): 19.4 µM (inactive)
GI50 (SW-620): 27.5 µM (inactive)
GI50 (U-251): 22.4 µM (inactive)

CCCCCCCCC(O)c1ccc(/C=C\C(O)CCCC(=O)O)s1 (stereo unspecified)
GI50 (786-0): > 100 µM (inactive)
GI50 (A549): > 100 µM (inactive)
GI50 (ACHN): > 100 µM (inactive)
GI50 (COLO 205): > 100 µM (inactive)
GI50 (EKVX): > 100 µM (inactive)
GI50 (HCC 2998): > 100 µM (inactive)
GI50 (HCT-15): > 100 µM
GI50 (IGROV-1): > 100 µM (inactive)
GI50 (LOX IMVI): > 100 µM (inactive)
GI50 (NCI-H23): > 100 µM (inactive)
GI50 (OVCAR-5): > 100 µM (inactive)
GI50 (OVCAR-8): > 100 µM (inactive)
GI50 (SF-295): > 100 µM (inactive)
GI50 (SK-MEL-5): > 100 µM (inactive)
GI50 (SN12C): > 100 µM (inactive)
GI50 (SW-620): > 100 µM (inactive)
GI50 (U-251): > 100 µM (inactive)
GI50 (UO-31): > 100 µM (inactive)
